The source of these data is patent US20180022780A1, “STABILIZATION ADRENOMEDULLIN DERIVATIVES AND USE THEREOF” (priority 2014, published 2018).

Molecules are shown by their SMILES. Bridge positions count the residues as written; N and C are the ends. Square brackets hold non-standard residues; d marks the D form. Peptide text beside a SMILES is read from it. Orn = NCCC[C@H](N)C(=O)O; Dab = NCC[C@H](N)C(=O)O; Dap = NC[C@H](N)C(=O)O

As a reminder, the EC50 is the concentration needed to bring the measured effect to its halfway point.

In assay [1] the target is T1, human adrenomedullin-receptor (Homo sapiens, UniProt O60895+Q16602).
T1 construct: expressed in transfected cells; host or cells: CHO (Chinese hamster ovary) recombinant reporter cell line with aequorin
T1 sequence (Q16602 23-461): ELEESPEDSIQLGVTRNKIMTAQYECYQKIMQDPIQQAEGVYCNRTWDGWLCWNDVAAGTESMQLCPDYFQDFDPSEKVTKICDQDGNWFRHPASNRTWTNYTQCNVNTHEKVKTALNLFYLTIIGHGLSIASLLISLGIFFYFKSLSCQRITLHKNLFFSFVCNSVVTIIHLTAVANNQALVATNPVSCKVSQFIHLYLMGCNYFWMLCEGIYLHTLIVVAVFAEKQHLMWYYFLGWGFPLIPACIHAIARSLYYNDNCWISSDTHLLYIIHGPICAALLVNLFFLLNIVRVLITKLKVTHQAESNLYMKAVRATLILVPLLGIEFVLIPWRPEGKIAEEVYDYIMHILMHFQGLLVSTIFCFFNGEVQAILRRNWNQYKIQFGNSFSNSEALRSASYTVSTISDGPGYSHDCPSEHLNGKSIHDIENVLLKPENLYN
T1 sequence (O60895 43-175): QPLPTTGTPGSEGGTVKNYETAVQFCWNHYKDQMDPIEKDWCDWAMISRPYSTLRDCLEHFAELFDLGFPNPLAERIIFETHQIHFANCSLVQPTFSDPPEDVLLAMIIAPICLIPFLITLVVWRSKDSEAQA
In words: Tests on a recombinant adrenomedullin-receptor reporter cell (CHO, aequorin luminescence). It counts as cell-based. The note with it: Table 1, CHO cell line carrying the human adrenomedullin-receptor. As for the experimental part:
Activation of the receptor by ligands was measured by aequorin luminescence. Construction of the cell line and measurement procedure has been described in detail [Wunder F., Rebmann A., Geerts A, and Kalthof B., Mol Pharmacol, 73, 1235-1243 (2008)]. In brief: Cells were seeded on opaque 384-well microtiter plates at a density of 4000 cells/well and were grown for 24 h. After removal of culture medium, cells were loaded for 3 h with 0.6 μg/ml coelenterazine in Ca^2+-free Tyrode solution (130 mM sodium chloride, 5 mM potassium chloride, 20 mM HEPES (4-(2-hydroxyethyl)-1-piperazineethanesulfonic acid), 1 mM magnesium chloride, and 4.8 mM sodium hydrogen carbonate, pH 7.4) supplemented with 0.2 mM 3-Isobutyl-1-methylxanthine (IBMX) in a cell culture incubator. Examples were added for 6 min in calcium^2+-free Tyrode solution containing 0.1% bovine serum albumin. Immediately before adding calcium^2+ to a final concentration of 3 mM measurement of the aequorin luminescence was started by use of a suitable luminometer. Luminescence was measured for 60 s. In a typical experiment compounds were tested in a concentration range of 1×10^−13 to 3×10^−6 M.

In assay [2] the target is T2, CLR fused to EYFP and RAMP2 fused to ECFP (Homo sapiens, UniProt O60895+Q16602).
T2 construct: EYFP; ECFP; expressed in transfected cells; host or cells: HEK-293 cells, transient co-transfection
T2 sequence (Q16602 23-461): as the sequence (Q16602 23-461) above
T2 sequence (O60895 43-175): as the sequence (O60895 43-175) above
The experiment in a line: cAMP assay (CRE luciferase reporter, HEK-293 cells transiently co-transfected with CLR and RAMP2). The note with it: Table 2, cAMP assay; HEK-293, CLR/RAMP2, CRE luciferase, 3 h stimulation, normalized to [G^14]ADM(14-52). The class given is cell-based. The procedure, abridged:
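HEK-293 cells transiently co-transfected with CLR-EYFP, RAMP2-ECFP and a CRE-luc2P luciferase reporter were stimulated with ligands (eight concentrations, triplicate) for 3 h at 37 °C. Luminescence was corrected to 5 µM forskolin, normalized to [G^14]ADM(14-52) standard, and fitted by non-linear regression to dose-response curves.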
Background: Changes in cAMP serve as a functional read-out for many G protein-coupled receptors.

Regarding `CC[C@H](C)[C@H](NC(=O)[C@H](CCC(N)=O)NC(=O)[C@H](Cc1c[nH]cn1)NC(=O)[C@H](C)NC(=O)[C@H](CC(C)C)NC(=O)[C@H](CCCCN)NC(=O)[C@H](CCC(N)=O)NC(=O)[C@@H](NC(=O)[C@@H](NC(=O)[C@@H]1CCC(=O)NCCCC[C@H](NC(=O)CNC(=O)CN)C(=O)N[C@@H](CCCNC(=N)N)C(=O)N[C@@H](Cc2ccccc2)C(=O)NCC(=O)N[C@@H]([C@@H](C)O)C(=O)N1)[C@@H](C)O)C(C)C)C(=O)N[C@@H](Cc1ccc(O)cc1)C(=O)N[C@@H](CCC(N)=O)C(=O)N[C@@H](Cc1ccccc1)C(=O)N[C@H](C(=O)N[C@@H](CC(=O)O)C(=O)N[C@@H](CCCCN)C(=O)N[C@@H](CC(=O)O)C(=O)N[C@@H](CCCCN)C(=O)N[C@@H](CC(=O)O)C(=O)N[C@@H](CC(N)=O)C(=O)N[C@H](C(=O)N[C@@H](C)C(=O)N1CCC[C@H]1C(=O)N[C@@H](CCCNC(=N)N)C(=O)N[C@@H](CO)C(=O)N[C@@H](CCCCN)C(=O)N[C@H](C(=O)N[C@@H](CO)C(=O)N1CCC[C@H]1C(=O)N[C@@H](CCC(N)=O)C(=O)NCC(=O)N[C@@H](Cc1ccc(O)cc1)C(N)=O)[C@@H](C)CC)C(C)C)[C@@H](C)O` [Example 2, ((2S,5S,11S,14S,23S)-23-(2-(2-aminoacetamido)acetamido)-5-benzyl-2-(3-guanidinopropyl)-11-((R)-1-hydroxyethyl)-3,6,9,12,17,24-hexaoxo-1,4,7,10,13,18-hexaazacyclotetracosane-14-carbonyl)-L-threonyl-ADM(22-52)] (H-GGKRFGTETVQKLAHQIYQFTDKDKDNVAPRSKISPQGY-NH2; lactam 3-8), the EC50 in assay [1] and in assay [2] was over 1000 nM in each case.

Consider `CC[C@H](C)[C@H](NC(=O)[C@H](CCC(N)=O)NC(=O)[C@H](Cc1c[nH]cn1)NC(=O)[C@H](C)NC(=O)[C@H](CC(C)C)NC(=O)[C@H](CCCCN)NC(=O)[C@H](CCC(N)=O)NC(=O)[C@@H](NC(=O)[C@@H](NC(=O)[C@@H]1CC(=O)NCC[C@H](NC(=O)CNC(=O)CN)C(=O)N[C@@H](CCCNC(=N)N)C(=O)N[C@@H](Cc2ccccc2)C(=O)NCC(=O)N[C@@H]([C@@H](C)O)C(=O)N1)[C@@H](C)O)C(C)C)C(=O)N[C@@H](Cc1ccc(O)cc1)C(=O)N[C@@H](CCC(N)=O)C(=O)N[C@@H](Cc1ccccc1)C(=O)N[C@H](C(=O)N[C@@H](CC(=O)O)C(=O)N[C@@H](CCCCN)C(=O)N[C@@H](CC(=O)O)C(=O)N[C@@H](CCCCN)C(=O)N[C@@H](CC(=O)O)C(=O)N[C@@H](CC(N)=O)C(=O)N[C@H](C(=O)N[C@@H](C)C(=O)N1CCC[C@H]1C(=O)N[C@@H](CCCNC(=N)N)C(=O)N[C@@H](CO)C(=O)N[C@@H](CCCCN)C(=O)N[C@H](C(=O)N[C@@H](CO)C(=O)N1CCC[C@H]1C(=O)N[C@@H](CCC(N)=O)C(=O)NCC(=O)N[C@@H](Cc1ccc(O)cc1)C(N)=O)[C@@H](C)CC)C(C)C)[C@@H](C)O` [Example 5, ((2S,5S,11S,14S,20S)-20-(2-(2-aminoacetamido)acetamido)-5-benzyl-2-(3-guanidinopropyl)-11-((R)-1-hydroxyethyl)-3,6,9,12,16,21-hexaoxo-1,4,7,10,13,17-hexaazacyclohenicosane-14-carbonyl)-L-threonyl-ADM(22-52)] (H-GG[Dab]RFGTDTVQKLAHQIYQFTDKDKDNVAPRSKISPQGY-NH2; lactam 3-8), for which the EC50 is over 1000 nM in assay [1] and 112 nM in assay [2].

For `CC[C@H](C)[C@H](NC(=O)[C@H](CCC(N)=O)NC(=O)[C@H](Cc1c[nH]cn1)NC(=O)[C@H](C)NC(=O)[C@H](CC(C)C)NC(=O)[C@H](CCCCN)NC(=O)[C@H](CCC(N)=O)NC(=O)[C@@H](NC(=O)[C@@H](NC(=O)[C@@H]1CNC(=O)CC[C@H](NC(=O)CNC(=O)CN)C(=O)N[C@@H](CCCNC(=N)N)C(=O)N[C@@H](Cc2ccccc2)C(=O)NCC(=O)N[C@@H]([C@@H](C)O)C(=O)N1)[C@@H](C)O)C(C)C)C(=O)N[C@@H](Cc1ccc(O)cc1)C(=O)N[C@@H](CCC(N)=O)C(=O)N[C@@H](Cc1ccccc1)C(=O)N[C@H](C(=O)N[C@@H](CC(=O)O)C(=O)N[C@@H](CCCCN)C(=O)N[C@@H](CC(=O)O)C(=O)N[C@@H](CCCCN)C(=O)N[C@@H](CC(=O)O)C(=O)N[C@@H](CC(N)=O)C(=O)N[C@H](C(=O)N[C@@H](C)C(=O)N1CCC[C@H]1C(=O)N[C@@H](CCCNC(=N)N)C(=O)N[C@@H](CO)C(=O)N[C@@H](CCCCN)C(=O)N[C@H](C(=O)N[C@@H](CO)C(=O)N1CCC[C@H]1C(=O)N[C@@H](CCC(N)=O)C(=O)NCC(=O)N[C@@H](Cc1ccc(O)cc1)C(N)=O)[C@@H](C)CC)C(C)C)[C@@H](C)O` [Example 6, ((3S,6S,12S,15S,18S)-18-(2-(2-aminoacetamido)acetamido)-12-benzyl-15-(3-guanidinopropyl)-6-((R)-1-hydroxyethyl)-5,8,11,14,17,21-hexaoxo-1,4,7,10,13,16-hexaazacyclohenicosane-3-carbonyl)-L-threonyl-ADM(22-52)] (H-GGERFGT[Dap]TVQKLAHQIYQFTDKDKDNVAPRSKISPQGY-NH2; lactam 3-8), the figures for the EC50 in assay [1] and in assay [2] were over 1000 nM and 303 nM, respectively.

As to `CC[C@H](C)[C@H](NC(=O)[C@H](CCC(N)=O)NC(=O)[C@H](Cc1c[nH]cn1)NC(=O)[C@H](C)NC(=O)[C@H](CC(C)C)NC(=O)[C@H](CCCCN)NC(=O)[C@H](CCC(N)=O)NC(=O)[C@@H](NC(=O)[C@@H](NC(=O)[C@@H]1CC(=O)NCCC[C@H](NC(=O)CNC(=O)CN)C(=O)N[C@@H](CCCNC(=N)N)C(=O)N[C@@H](Cc2ccccc2)C(=O)NCC(=O)N[C@@H]([C@@H](C)O)C(=O)N1)[C@@H](C)O)C(C)C)C(=O)N[C@@H](Cc1ccc(O)cc1)C(=O)N[C@@H](CCC(N)=O)C(=O)N[C@@H](Cc1ccccc1)C(=O)N[C@H](C(=O)N[C@@H](CC(=O)O)C(=O)N[C@@H](CCCCN)C(=O)N[C@@H](CC(=O)O)C(=O)N[C@@H](CCCCN)C(=O)N[C@@H](CC(=O)O)C(=O)N[C@@H](CC(N)=O)C(=O)N[C@H](C(=O)N[C@@H](C)C(=O)N1CCC[C@H]1C(=O)N[C@@H](CCCNC(=N)N)C(=O)N[C@@H](CO)C(=O)N[C@@H](CCCCN)C(=O)N[C@H](C(=O)N[C@@H](CO)C(=O)N1CCC[C@H]1C(=O)N[C@@H](CCC(N)=O)C(=O)NCC(=O)N[C@@H](Cc1ccc(O)cc1)C(N)=O)[C@@H](C)CC)C(C)C)[C@@H](C)O` [Example 9, ((2S,5S,11S,14S,21S)-21-(2-(2-aminoacetamido)acetamido)-5-benzyl-2-(3-guanidinopropyl)-11-((R)-1-hydroxyethyl)-3,6,9,12,16,22-hexaoxo-1,4,7,10,13,17-hexaazacyclodocosane-14-carbonyl)-L-threonyl-ADM(22-52)] (H-GG[Orn]RFGTDTVQKLAHQIYQFTDKDKDNVAPRSKISPQGY-NH2; lactam 3-8), the EC50 in assay [1] and in assay [2] was over 1000 nM in each case.
